# Results from patent US20240165259A1, “BIOORTHOGONAL REACTION SUITABLE FOR CLICK/UNCLICK APPLICATIONS” (DANA-FARBER CANCER INSTITUTE, INC., priority 2021, published 2024).
# Values joined by “and” are separate entries in the source; they are usually repeats but may differ in a detail not shown here. Identical values can stand only once.
# What was measured:
# [1] = Stability study of alkynes and enamine N-oxide 20′ in 50% CD3CN/PBS with or without glutathione or cell lysate (19F NMR); assay type: physicochemical; conditions: for time over which compound is stable: 2 mM compound, 50% CD3CN/PBS (pH 7.0), 19F NMR; for degradation by 19F NMR without glutathione: pH 7.0, room temperature, 7 days
# Description: The stability of alkynes 13′-15′ under biological conditions was evaluated (FIG. 13B). […] These stabilities compared favorably with contemporary bioorthogonal transformations (Oliveira et al., Chem. Soc. Rev. 46(16):4895-4950 (2017); Tian et al., ACS Chem. Biol. 14(12):2489-2496 (2019)). […] This observation was consistent with σ-withdrawing/n-donating alkyne substituents, such as halogens, simultaneously promoting hydroamination and attenuating conjugate addition by cellular nucleophiles.
# The enamine N-oxide products were remarkably stable, especially in aqueous solutions.
# All stability experiments were carried out at room temperature in 50% CD3CN in PBS (pH 7.0) with or without equimolar glutathione. pH was adjusted after the addition of glutathione. Reactions were monitored via ^19F NMR spectroscopy using α,α,α-benzotrifluoride as an internal standard (FIG. 17-FIG. 20).
# [2] = Reactivity screening of linear alkynes 8′-15′ (NMR conversion); assay type: physicochemical; conditions: 10 mM alkyne, 5 equivalents hydroxylamine, CD3CN, room temperature, 48 hours
# Description: With the desired alkynes in hand, their reactivity toward N,N-diethylhydroxylamine (2′) was examined. […] were each incubated with 5 equivalents of […] in CD3CN at room temperature, and the reaction conversions were monitored by ^1H (alkyne 8′) or ^19F (alkynes 9′-15′) NMR (FIG. 12A). […] Their conversion to the corresponding enamine N-oxides could only be achieved upon heating to 60° C. (Example 59).
# Each experiment was performed with 10 mM alkyne (8′-15′) and 50 mM […] in CD3CN at room temperature. The consumption of starting material was monitored via ^1H (8′) or ^19F (9′-15′) NMR spectroscopy using α,α,α-benzotrifluoride as an internal standard (FIG. 12A).
# [3] = target: T1, lysozyme-cyclooctyne conjugate (Lys-COT) 11″ (Gallus gallus, UniProt P00698); assay: Time-dependent labeling of Lys-COT 11″ by TAMRA-hydroxylamines 6″-10″ (in-gel fluorescence); assay type: biochemical; conditions: 200 μM hydroxylamine, 10 μM Lys-COT 11″, PBS; for time to complete conversion (lysozyme labeling): room temperature; for extent of lysozyme labeling: 1-72 h
# T1 construct: purchased
# Description: The relative rates of hydroamination between TAMRA-hydroxylamines 6″-10″ ([…]) and Lys-COT 11″ (10 μM) were evaluated by monitoring the extent of lysozyme labeling over 1-72 h in phosphate-buffered saline (PBS) at room temperature by in-gel fluorescence (FIG. 26B).
# Lysozyme (CAS 12650-88-3, 50 mg/mL in deionized H2O) was diluted into phosphate-buffered saline (PBS, pH 7.4) to a final concentration of 10 mg/mL. […] The reaction solution was incubated for 1 h at room temperature. […] The concentration of lysozyme was determined by A280 measurement in denaturing buffer (pH 7.0, 6 M guanidinium, 30 mM MOPS) on a UV-vis spectrophotometer. The solution was diluted with PBS (pH 7.4) to a final concentration of 0.15 mg/mL or 0.60 mg/mL for labeling experiments. The protein solutions were snap frozen under liquid nitrogen and stored at −20° C.
# Time-dependent protein labeling experiments: A solution of TAMRA-hydroxylamine 6″ (Kang, et al., J. Am. Chem. Soc. 143:5616-5621 (2021))-8″ and 10″ (1.26 μL, 5 mM in H2O; 200 μM final concentration) or 9″ (1.26 μL, 5 mM in 50% DMSO/H2O; 200 μM final concentration) was added to a solution of lysozyme-COT 11″ (30.0 μL, 0.15 mg/mL in PBS, pH 7.4). The reaction mixtures were incubated at room temperature in the dark. At each time point, an aliquot of the reaction mixture (3 uL) was removed, quenched by adding 1×SDS sample buffer (19.5 μL) and N,N-diethylhydroxylamine (7.5 uL, 100 mM in H2O; 25 mM final concentration), snap frozen in liquid nitrogen, and stored at −80° C. until all samples were ready to be loaded on the gel. After 72 h, all reactions had been quenched. All samples were thawed, and each solution (6 μL) was loaded onto a 15-well 12% SDS-PAGE gel. The gel was run at room temperature and at 175 V for 50 min. In-gel fluorescence was imaged with a Typhoon™ FLA 9500 (GE) at 532 nm with a photomultiplier tube (PMT) setting of 500 V (FIG. 35-FIG. 37).
# [4] = Second-order kinetics of cyclooctyne hydroamination by N,N-diethylhydroxylamine (NMR; competition experiment for 10); assay type: physicochemical; conditions: CD3CN, room temperature; for k2 (M^−1s^−1), second order rate constant: equimolar cyclooctyne and N,N-diethylhydroxylamine, NMR, error = standard deviation of the mean, triplicate
# Description: Using NMR spectroscopy to monitor reaction progress, the second order rate constants for the reaction of N,N-diethylhydroxyl amine (1) with a panel of cyclooctynes 2-10 in d3-acetonitrile was determined at room temperature (FIG. 3).
# All kinetics experiments were carried out at room temperature in CD3CN. Reactions were monitored via NMR spectroscopy using an internal standard. Second order kinetics were performed by combining cyclooctynes and N,N-diethylhydroxylamine in a 1:1 ratio. […] The reported errors for rate constants are based on the standard deviation of the mean for experiments performed in triplicate.
# The second order rate constant for difluorocyclooctyne 10 was determined using a competition experiment with carbamate 9. […] The solution was transferred to an NMR tube and the product ratio (S14:S13) was determined by ^1HNMR spectroscopy using 1,3,5-trimethoxylbenzene as an internal standard. […] The reported error for the rate constant is the standard deviation of the mean for experiments performed in triplicate.
# T1 sequence (P00698 19-147): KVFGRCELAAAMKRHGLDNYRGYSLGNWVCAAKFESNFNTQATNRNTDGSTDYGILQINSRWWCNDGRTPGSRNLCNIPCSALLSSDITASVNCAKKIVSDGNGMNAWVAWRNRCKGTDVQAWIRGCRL
compound,measurement,setting,value
"COc1ccc(COCCOC(F)(F)C#CCl)cc1 [14′, 1-((2-((3-chloro-1,1-difluoroprop-2-yn-1-yl)oxy)ethoxy)methyl)-4-methoxybenzene]",time over which compound is stable,[1],≥ 2 weeks
same,degradation by 19F NMR without glutathione,[1]; 50% CD3CN/PBS,no degradation
"COc1ccc(COCCOC(F)(F)C#CI)cc1 [12′, 1-((2-((1,1-difluoro-3-iodoprop-2-yn-1-yl)oxy)ethoxy)methyl)-4-methoxybenzene]","reactivity toward N,N-dialkylhydroxylamine (NMR conversion)",[2],moderate reactivity
"COc1ccc(COCCOC(F)(F)C#CBr)cc1 [13′, 1-((2-((3-bromo-1,1-difluoroprop-2-yn-1-yl)oxy)ethoxy)methyl)-4-methoxybenzene]",time to degradation in the presence of thiol,"[1]; 50% CD3CN/PBS, pH 7.0, 2 mM glutathione",< 10 min
"CN(C)c1ccc2c(c1)Oc1cc(N(C)C)ccc1C21OC(=O)c2ccc(C(=O)NCCOCCN(O)Cc3ccccc3)cc21 [9″, N-(2-(2-(Benzyl(hydroxy)amino)ethoxy)ethyl)-3′,6′-bis(dimethylamino)-3-oxo-3H-spiro[isobenzofuran-1,9′-xanthene]-6-carboxamide]",time to complete conversion (lysozyme labeling),[3],≤ 6 h
"C#CC(F)(F)OCCOCc1ccc(OC)cc1 [11′, 1-((2-((1,1-difluoroprop-2-yn-1-yl)oxy)ethoxy)methyl)-4-methoxybenzene]","reactivity toward N,N-dialkylhydroxylamine (NMR conversion)",[2],moderate reactivity
"CC(=O)OC1C#CCCCCC1 (centres unmarked) [compound 6, cyclooct-2-yn-1-yl acetate]","k2 (M^−1s^−1), second order rate constant",[4],2.13 ± 0.03 M⁻¹ s⁻¹
"C1#CC2(CCCCC1)OCCO2 [compound 5, 1,4-dioxaspiro[4.7]dodec-6-yne]","k2 (M^−1s^−1), second order rate constant",[4],1.20 ± 0.09 M⁻¹ s⁻¹
"CC[N+]([O-])(CC)/C(Cl)=C/C(F)(F)OCCOCc1ccc(OC)cc1 [20′, (Z)-1-chloro-N,N-diethyl-3,3-difluoro-3-(2-((4-methoxybenzyl)oxy)ethoxy)prop-1-en-1-amine oxide]",degradation in cell lysate,"[1]; cell lysate, room temperature, 24 hours",no observable degradation
"CN(C)c1ccc2c(c1)Oc1cc(N(C)C)ccc1C21OC(=O)c2ccc(C(=O)NCCOCCN(O)C(C)(C)C)cc21 [8″, N-(2-(2-(tert-Butyl(hydroxy)amino)ethoxy)ethyl)-3′,6′-bis(dimethylamino)-3-oxo-3H-spiro[isobenzofuran-1,9′-xanthene]-6-carboxamide]",extent of lysozyme labeling,[3],poor labeling
"COc1ccc(COCCC(F)(F)C#CCl)cc1 [15′, 1-(((5-chloro-3,3-difluoropent-4-yn-1-yl)oxy)methyl)-4-methoxybenzene]",time over which compound is stable,[1],≥ 1 weeks
same,half-life,"[1]; 50% CD3CN/PBS with 2 mM glutathione, pH 7, 50% CD3CN/PBS, pH 7.0, 2 mM glutathione, room temperature (500 μM compound elsewhere in the source), read-out: half-life in the presence of glutathione (converted)",43 h
same,degradation by 19F NMR without glutathione,[1]; 50% CD3CN/PBS,no degradation
"OC1C#CCCCCC1 (centres unmarked) [compound 4, cyclooct-2-yn-1-ol]","k2 (M^−1s^−1), second order rate constant",[4],1.19 ± 0.15 M⁻¹ s⁻¹
"CN(C)c1ccc2c(c1)Oc1cc(N(C)C)ccc1C21OC(=O)c2ccc(C(=O)N3CCN(O)CC3)cc21 [10″, 3′,6′-Bis(dimethylamino)-6-(4-hydroxypiperazine-1-carbonyl)-3H-spiro[isobenzofuran-1,9′-xanthen]-3-one]",time to complete conversion (lysozyme labeling),[3],≤ 10 h
"CC(C)N(O)CCOCCNC(=O)c1ccc2c(c1)C1(OC2=O)c2ccc(N(C)C)cc2Oc2cc(N(C)C)ccc21 [7″, 3′,6′-Bis(dimethylamino)-N-(2-(2-(hydroxy(isopropyl)amino)ethoxy)ethyl)-3-oxo-3H-spiro[isobenzofuran-1,9′-xanthene]-6-carboxamide]",extent of lysozyme labeling,[3],poor labeling
"C#CC(F)CCOCc1ccc(OC)cc1 (centres unmarked) [9′, 1-(((3-fluoropent-4-yn-1-yl)oxy)methyl)-4-methoxybenzene]","reactivity toward N,N-dialkylhydroxylamine (NMR conversion)",[2],no conversion
"C#CCOCc1ccc(OC)cc1 [8′, 1-methoxy-4-((prop-2-yn-1-yloxy)methyl)benzene]","reactivity toward N,N-dialkylhydroxylamine (NMR conversion)",[2],no conversion
"FC1C#CCCCCC1 (centres unmarked) [compound 7, 3-fluorocyclooct-1-yne]","k2 (M^−1s^−1), second order rate constant",[4],2.71 ± 0.43 M⁻¹ s⁻¹
"dibenzoazacyclooctyne [compound 8, reference compound]","k2 (M^−1s^−1), second order rate constant",[4],2.77 ± 0.13 M⁻¹ s⁻¹
"C#CC(F)(F)CCOCc1ccc(OC)cc1 [10′, 1-(((3,3-difluoropent-4-yn-1-yl)oxy)methyl)-4-methoxybenzene]","reactivity toward N,N-dialkylhydroxylamine (NMR conversion)",[2],partial conversion
"O=C(Nc1ccc([N+](=O)[O-])cc1)OC1C#CCCCCC1 (centres unmarked) [compound 9, cyclooct-2-yn-1-yl (4-nitrophenyl)carbamate]",rate acceleration over cyclooctyne (2),[4],120 fold
same,"k2 (M^−1s^−1), second order rate constant",[4],3.87 M⁻¹ s⁻¹ and 3.87 ± 0.55 M⁻¹ s⁻¹
